Data as given in US20040127403A1, “Methods for treating and preventing Gram-positive bacteremias” (priority 2002, published 2004).

What was measured:
[1] = Single dose study in healthy male volunteers: absorption and fecal recovery; type: in vivo, human
Experimental: The absorption, tolerability, and recovery of ramoplanin following single dose oral administration were investigated in male volunteers. Ramoplanin was administered as an aqueous solution at a dose of 100, 200, 500, or 1000 mg to fasting subjects. Serum samples were obtained prior to drug administration of ramoplanin and 0.5, 1, 2, 3, 6, 9, 12, 24, 48, 72, and 96 hours after treatment. Urine samples were collected prior to administration of ramoplanin and over the periods 0-3, 3-6, 6-12, 12-24, 24-48, 48-72, and 72-96 hours after dosing. Fecal samples were collected prior to dosing and over the periods 0-16 (Day 1), 16-40 (Day 2), 40-64 (Day 3), 64-88 (Day 4), and 88-96 (Day 5) hours after dosing. A microbiological assay employing Bacillis subtilis ATCC 6633 as the test organism was used to determine ramoplanin concentrations in serum, urine, and feces. The limits of quantitation for this assay were 0.02 μg/mL in serum, 0.012 μg/mL in urine, and 3 μg/g in feces. Tolerability was assessed on the basis of clinical signs and symptoms and the results of blood and urine laboratory tests.

VRE = test: Time-kill studies against VRE; type: cell-based
E. faecium A 6350 Line-R = test: MIC, NCCLS broth microdilution; type: cell-based; details: E. faecium A 6350 Line-R (Table 2)
Outline: (§1)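 Each MIC was measured in two broths, CAMHB and TSB, using the NCCLS microdilution procedure; 0.02% bovine serum albumin was added with ramoplanin.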

E. faecium A2735 Syn-R = test: MIC, NCCLS broth microdilution; type: cell-based
Outline: as §1

E. faecium A6343 Line-R = test: MIC, NCCLS broth microdilution; type: cell-based
Outline: as §1

E. faecium A6349 Line-R = test: MIC, NCCLS broth microdilution; type: cell-based
Outline: as §1

S. epidermidis ATCC14990 = test: MIC, NCCLS broth microdilution; type: cell-based; details: S. epidermidis ATCC14990
Outline: as §1

S. aureus ATCC27659 MSSA = test: MIC, NCCLS broth microdilution; type: cell-based
Outline: as §1

Clostridium spp. = test: Multiple dose study: activity on stool microflora, Clostridium; type: in vivo, human
Experimental: (§2) Healthy male volunteers were administered 200, 400, or 800 mg ramoplanin twice-a-day, for ten consecutive days. The predetermined dose was reconstituted in 5 mL water per vial, mixed with 50 mL of sweetened, aromatized solution, and immediately administered orally to the subjects.
The antibacterial activity of ramoplanin on the stool microflora was assessed in a subset of the subjects. Microbial concentrations (i.e., the number of organisms per gram of fecal matter) were determined at the following time points: Day-4 (pre-treatment), Days 4 and 10 (treatment), and Days […] and 24 (follow-up). Tolerability and absorption were also investigated.

[2] = tested on: VanA strain of E. faecium (VRE); test: Suppression of VRE in a mouse colonization model; type: in vivo, Mice
Experimental: Mice were colonized with a clinical isolate VanA strain of E. faecium (VRE) isolated from a septicemic patient. A single inoculation of 5×10^8 cfu VRE by oral gavage (Day 0) was followed by treatment with vancomycin in the drinking water to maintain colonization. On day 22, each group received the same vancomycin-containing drinking water. One group also received ramoplanin (100 μg/mL) in its drinking water. The dose of ramoplanin per day was estimated to be 15 mg/kg, based on a standard water consumption of 150 mL/kg/day. Treatment with ramoplanin was discontinued on Day 29, and vancomycin treatment was discontinued on Day 36. The control group consisted of five mice, while the ramoplanin group consisted of four mice.

[3] = Multiple dose study in healthy male volunteers: absorption and fecal concentrations; type: in vivo, human
Experimental: as §2
No absorption from the human gastrointestinal tract was observed.

[4] = In vitro interaction of ramoplanin with human intestinal contents
Source text: The in vitro interaction of ramoplanin with human intestinal contents was studied. […] The binding and the subsequent release of ramoplanin from feces would likely result in long-lasting concentrations in the intestinal tract.

[5] = Day 29, completion of ramoplanin therapy, 25 mg/kg/day vancomycin + 15 mg/kg/day ramoplanin in drinking water

## Ramoplanin
[1]; fourth day of study, single oral dose
  subjects with ramoplanin still detectable in feces: 17 of 24
[1]; healthy male volunteers, single oral doses up to 1000 mg and multiple oral doses 200, 400, 800 mg B.I.D. 10 days, bioassay and HPLC
  ramoplanin in serum/plasma or urine: not detected
[1]; single oral dose 100 mg
  Mean cumulative recovery of ramoplanin in feces: 67.7 % of the administered dose
  Mean maximum concentration in feces: 214 µg/g
  cumulative recovery of ramoplanin in feces, range: 55.7-84 % of the administered dose
  maximum concentration in feces, range: 148 to 278 µg/g
[1]; single oral dose 200 mg
  Mean cumulative recovery of ramoplanin in feces: 48.5 % of the administered dose
  Mean maximum concentration in feces: 287 µg/g
  cumulative recovery of ramoplanin in feces, range: 39.3-56.5 % of the administered dose
  maximum concentration in feces, range: 164 to 454 µg/g
[1]; single oral dose 500 mg
  Mean cumulative recovery of ramoplanin in feces: 52.8 % of the administered dose
  Mean maximum concentration in feces: 1655 µg/g
  cumulative recovery of ramoplanin in feces, range: 41.3-79.6 % of the administered dose
  maximum concentration in feces, range: 737 to 3316 µg/g
[1]; single oral dose 1000 mg
  Mean cumulative recovery of ramoplanin in feces: 46.4 % of the administered dose
  Mean maximum concentration in feces: 1835 µg/g
  cumulative recovery of ramoplanin in feces, range: 39.9-58.4 % of the administered dose
  maximum concentration in feces, range: 1336 to 3154 µg/g
[1]; single oral dose 100-1000 mg
  time of maximum ramoplanin concentration and maximum percentage recovery in feces: the day after administration (Day 2)
VRE
  time-kill activity: bactericidal activity
E. faecium A 6350 Line-R; CAMHB
  MIC: 0.25, 0.25 μg/ml
E. faecium A 6350 Line-R; TSB
  MIC: 0.25, 0.25 μg/ml
E. faecium A2735 Syn-R; CAMHB
  MIC: 0.25, 0.25 μg/ml
E. faecium A2735 Syn-R; TSB
  MIC: 0.5, 0.5 μg/ml
E. faecium A2735 Syn-R; Table 6, 1st
  MIC: 0.25 µg/mL
E. faecium A2735 Syn-R; Table 6, 2nd
  MIC: 0.25 µg/mL
E. faecium A6343 Line-R; CAMHB
  MIC: 0.25, 0.25 μg/ml
E. faecium A6343 Line-R; TSB
  MIC: 0.25, 0.25 μg/ml
E. faecium A6343 Line-R; Table 6, 1st
  MIC: 0.125 µg/mL
E. faecium A6343 Line-R; Table 6, 2nd
  MIC: 0.25 µg/mL
E. faecium A6349 Line-R; Table 6, 1st
  MIC: 0.125 µg/mL
E. faecium A6349 Line-R; Table 6, 2nd
  MIC: 0.25 µg/mL
S. epidermidis ATCC14990; CAMHB
  MIC: 0.5, 0.5 μg/ml
S. epidermidis ATCC14990; TSB
  MIC: 0.5, 0.5 μg/ml
S. epidermidis ATCC14990; Table 6, 1st
  MIC: 0.5 µg/mL
S. epidermidis ATCC14990; Table 6, 2nd
  MIC: 0.25 µg/mL
S. aureus ATCC27659 MSSA; CAMHB
  MIC: 0.25, 0.25 μg/ml
S. aureus ATCC27659 MSSA; TSB
  MIC: 0.25, 0.25 μg/ml
S. aureus ATCC27659 MSSA; Table 6, 1st
  MIC: 1 µg/mL
S. aureus ATCC27659 MSSA; Table 6, 2nd
  MIC: 0.25 µg/mL
Clostridium spp.; multiple dose study, stool microflora subset
  subjects with Clostridium spp. concentration reduced below detectable levels: 10 of 12
Clostridium spp.; two subjects carrying ramoplanin- and vancomycin-resistant Clostridium spp. (C. rectum and C. beijerinckii) before treatment
  clostridial load: no variation
[2]; [5]
  % Mice with VRE: 0%
  Enterococci in faeces: Total Enterococci: <2.4 log 10 cfu/g faeces
  Enterococci in faeces: VRE: <3.1 log 10 cfu/g faeces
[2]; mice, after one week of ramoplanin treatment, all animals (undetectable level)
  VRE concentration per gram of feces: < 3.1 log units
[2]; mice, before ramoplanin treatment
  VRE concentration per gram of feces: 9.7 log units
[2]; mice, ramoplanin 100 μg/mL in drinking water
  fecal density and carriage of VRE: significantly reduced
[3]; 200, 400 or 800 mg twice-a-day, ten days
  absorption from the human gastrointestinal tract: No absorption
[3]; Day 1 and 5 and pooled urine up to 72-96 after the last dose
  urine levels of ramoplanin: No levels were found in urine
[3]; Day 3, 200 mg twice-a-day
  average fecal concentration of ramoplanin: 827 µg/g
[3]; Day 3, 400 mg twice-a-day
  average fecal concentration of ramoplanin: 1742 µg/g
[3]; Day 3, 800 mg twice-a-day
  average fecal concentration of ramoplanin: 1901 µg/g
[3]; Day 10, 200 mg twice-a-day
  average fecal concentration of ramoplanin: 949 µg/g
[3]; Day 10, 400 mg twice-a-day
  average fecal concentration of ramoplanin: 1417 µg/g
[3]; Day 10, 800 mg twice-a-day
  average fecal concentration of ramoplanin: 2647 µg/g
[3]; Days 1, 5 and 10, hour 0.5-12 after the morning dose
  serum levels of ramoplanin: no serum levels of ramoplanin were detected
[3]; four days post-treatment
  fecal concentrations post-treatment: remained detectable in some subjects
[3]; up to Day 4 post-treatment
  cumulative recovery in feces: 25 % of the administered dose
[4]
  binding to feces: bind reversibly to solid components of feces
  microbiological activity in feces: microbiologically active in feces
